Laboratory results published in the kinase profiling compilation of Christmann-Franck et al. (2016).

Tests used:
Assay in all cases: radiometric filter-binding kinase assay
[1] = tested on: AKT2 (human), P31751 [S474D]
BRSK1 (human) = BRSK1 (human) (UniProt Q8TDC3)
CAMKK2 (human) = CAMKK2 (human) (UniProt Q96RR4)
CLK2 (human) = CLK2 (human) (UniProt P49760)
CSK (human) = CSK (human) (UniProt P41240)
CSNK1D (human) = CSNK1D (human) (UniProt P48730)
DYRK3 (human) = DYRK3 (human) (UniProt O43781)
EPHA2 (human) = EPHA2 (human) (UniProt P29317)
Chain of EPHA2 (human) (P29317 whole entry, looked up): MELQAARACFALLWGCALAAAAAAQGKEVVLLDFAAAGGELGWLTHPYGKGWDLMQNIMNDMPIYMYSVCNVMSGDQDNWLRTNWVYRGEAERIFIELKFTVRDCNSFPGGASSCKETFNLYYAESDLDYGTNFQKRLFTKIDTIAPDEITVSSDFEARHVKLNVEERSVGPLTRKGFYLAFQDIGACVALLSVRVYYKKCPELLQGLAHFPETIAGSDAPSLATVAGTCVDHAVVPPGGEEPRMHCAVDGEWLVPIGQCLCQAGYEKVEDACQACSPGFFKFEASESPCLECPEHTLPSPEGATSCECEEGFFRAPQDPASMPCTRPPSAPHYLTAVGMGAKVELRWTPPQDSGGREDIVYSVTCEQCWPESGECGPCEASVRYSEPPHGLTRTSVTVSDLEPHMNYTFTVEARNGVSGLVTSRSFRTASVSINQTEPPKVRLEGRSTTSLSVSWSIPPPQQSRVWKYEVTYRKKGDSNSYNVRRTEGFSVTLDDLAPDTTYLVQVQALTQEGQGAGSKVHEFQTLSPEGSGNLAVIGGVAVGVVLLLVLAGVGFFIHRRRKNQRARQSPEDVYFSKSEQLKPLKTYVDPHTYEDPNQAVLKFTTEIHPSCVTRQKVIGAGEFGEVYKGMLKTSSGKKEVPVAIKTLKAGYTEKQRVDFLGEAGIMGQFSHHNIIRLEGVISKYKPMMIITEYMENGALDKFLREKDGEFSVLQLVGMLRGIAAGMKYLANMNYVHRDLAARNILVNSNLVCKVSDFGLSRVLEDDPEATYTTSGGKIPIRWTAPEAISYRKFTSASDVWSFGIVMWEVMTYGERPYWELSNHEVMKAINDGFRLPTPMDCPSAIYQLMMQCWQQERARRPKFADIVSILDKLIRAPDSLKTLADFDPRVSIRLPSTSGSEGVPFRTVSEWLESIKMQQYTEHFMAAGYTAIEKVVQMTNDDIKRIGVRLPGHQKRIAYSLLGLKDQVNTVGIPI

FGFR1 (human) = FGFR1 (human) (UniProt P11362)
Chain of FGFR1 (human) (P11362 whole entry, looked up): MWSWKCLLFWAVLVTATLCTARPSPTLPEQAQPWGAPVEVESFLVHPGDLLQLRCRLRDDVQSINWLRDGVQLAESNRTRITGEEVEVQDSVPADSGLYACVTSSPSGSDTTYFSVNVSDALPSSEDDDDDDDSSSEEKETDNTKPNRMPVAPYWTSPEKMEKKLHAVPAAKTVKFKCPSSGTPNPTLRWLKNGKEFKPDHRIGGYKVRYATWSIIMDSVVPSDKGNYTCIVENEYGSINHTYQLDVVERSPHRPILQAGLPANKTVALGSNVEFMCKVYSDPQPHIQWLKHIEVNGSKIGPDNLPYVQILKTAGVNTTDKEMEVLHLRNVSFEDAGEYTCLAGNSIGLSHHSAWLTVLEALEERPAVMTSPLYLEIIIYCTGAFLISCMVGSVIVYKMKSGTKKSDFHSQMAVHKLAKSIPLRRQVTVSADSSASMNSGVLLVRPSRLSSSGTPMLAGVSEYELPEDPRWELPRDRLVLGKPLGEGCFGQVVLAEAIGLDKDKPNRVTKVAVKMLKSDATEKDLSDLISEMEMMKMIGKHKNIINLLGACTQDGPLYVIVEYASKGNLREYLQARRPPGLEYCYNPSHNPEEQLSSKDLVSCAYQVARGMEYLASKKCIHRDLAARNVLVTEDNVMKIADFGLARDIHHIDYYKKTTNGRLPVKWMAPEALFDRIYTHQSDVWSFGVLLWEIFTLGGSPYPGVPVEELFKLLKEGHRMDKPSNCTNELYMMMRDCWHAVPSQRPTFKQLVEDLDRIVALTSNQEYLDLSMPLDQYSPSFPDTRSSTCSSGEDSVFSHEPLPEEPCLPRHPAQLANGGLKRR

FLT1 (human) = FLT1 (human) (UniProt P17948)
GSK3B (human) = GSK3B (human) (UniProt P49841)
HIPK1 (human) = HIPK1 (human) (UniProt Q86Z02)
HIPK3 (human) = HIPK3 (human) (UniProt Q9H422)
Chain of HIPK3 (human) (Q9H422 whole entry, looked up): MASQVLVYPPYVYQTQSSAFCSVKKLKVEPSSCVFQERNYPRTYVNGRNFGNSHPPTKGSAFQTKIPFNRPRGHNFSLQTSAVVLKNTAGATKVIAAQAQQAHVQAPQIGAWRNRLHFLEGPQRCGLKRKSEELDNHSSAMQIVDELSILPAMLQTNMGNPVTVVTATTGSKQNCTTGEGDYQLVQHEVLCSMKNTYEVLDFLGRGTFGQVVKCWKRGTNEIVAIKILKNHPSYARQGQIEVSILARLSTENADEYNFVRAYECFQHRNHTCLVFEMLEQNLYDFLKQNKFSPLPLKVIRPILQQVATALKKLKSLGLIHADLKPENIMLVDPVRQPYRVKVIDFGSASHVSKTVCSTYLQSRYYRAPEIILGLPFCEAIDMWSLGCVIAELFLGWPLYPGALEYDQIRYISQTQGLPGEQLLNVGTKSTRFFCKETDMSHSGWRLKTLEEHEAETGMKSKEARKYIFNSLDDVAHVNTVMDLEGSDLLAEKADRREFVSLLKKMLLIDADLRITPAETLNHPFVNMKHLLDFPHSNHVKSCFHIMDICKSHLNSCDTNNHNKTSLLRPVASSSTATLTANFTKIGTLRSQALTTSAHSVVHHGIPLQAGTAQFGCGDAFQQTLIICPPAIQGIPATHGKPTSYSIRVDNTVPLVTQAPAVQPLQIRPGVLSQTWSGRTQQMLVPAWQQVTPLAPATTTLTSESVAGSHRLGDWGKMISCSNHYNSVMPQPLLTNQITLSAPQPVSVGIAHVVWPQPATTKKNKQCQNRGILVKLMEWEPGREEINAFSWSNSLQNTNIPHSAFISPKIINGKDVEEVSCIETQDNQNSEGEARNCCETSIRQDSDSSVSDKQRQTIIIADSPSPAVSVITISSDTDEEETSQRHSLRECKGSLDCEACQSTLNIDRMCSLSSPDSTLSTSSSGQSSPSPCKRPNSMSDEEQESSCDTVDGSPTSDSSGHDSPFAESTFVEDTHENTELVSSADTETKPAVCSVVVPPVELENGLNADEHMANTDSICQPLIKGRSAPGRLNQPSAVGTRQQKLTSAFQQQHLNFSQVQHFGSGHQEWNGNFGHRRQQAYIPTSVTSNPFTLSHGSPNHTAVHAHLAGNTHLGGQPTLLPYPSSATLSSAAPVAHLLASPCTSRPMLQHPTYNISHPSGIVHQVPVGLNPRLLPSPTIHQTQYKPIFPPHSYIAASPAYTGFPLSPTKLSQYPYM

IGF1R (human) = IGF1R (human) (UniProt P08069)
INSR (human) = INSR (human) (UniProt P06213)
IRAK4 (human) = IRAK4 (human) (UniProt Q9NWZ3)
Chain of IRAK4 (human) (Q9NWZ3 whole entry, looked up): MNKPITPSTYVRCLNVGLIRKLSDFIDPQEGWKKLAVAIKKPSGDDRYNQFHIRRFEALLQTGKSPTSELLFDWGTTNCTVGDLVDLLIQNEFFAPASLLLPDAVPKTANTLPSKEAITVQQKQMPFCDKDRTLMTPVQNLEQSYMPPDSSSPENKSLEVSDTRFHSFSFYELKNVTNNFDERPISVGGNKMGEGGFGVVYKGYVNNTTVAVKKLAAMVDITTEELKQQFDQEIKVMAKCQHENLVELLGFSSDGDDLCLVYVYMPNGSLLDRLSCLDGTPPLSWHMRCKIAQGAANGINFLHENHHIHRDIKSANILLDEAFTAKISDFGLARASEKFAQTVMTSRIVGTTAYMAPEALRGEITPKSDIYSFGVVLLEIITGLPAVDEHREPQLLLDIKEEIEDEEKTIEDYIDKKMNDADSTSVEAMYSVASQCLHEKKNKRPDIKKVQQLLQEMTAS

JAK2 JH1 JH2 (human) = JAK2 JH1 JH2 (human) (UniProt O60674)
LCK (mouse) = details: accession and sequence are those of the human protein
MAP3K1 (human) = MAP3K1 (human) (UniProt Q13233)
MAP3K7 TAB1 (human) = MAP3K7 TAB1 (human) (UniProt Q15750+O43318)
MAPK11 (human) = MAPK11 (human) (UniProt Q15759)
MAPK14 (human) = MAPK14 (human) (UniProt Q16539)
MAPK15 (human) = MAPK15 (human) (UniProt Q8TD08)
MAPKAPK5 (human) = MAPKAPK5 (human) (UniProt Q8IW41)
Chain of MAPKAPK5 (human) (Q8IW41 whole entry, looked up): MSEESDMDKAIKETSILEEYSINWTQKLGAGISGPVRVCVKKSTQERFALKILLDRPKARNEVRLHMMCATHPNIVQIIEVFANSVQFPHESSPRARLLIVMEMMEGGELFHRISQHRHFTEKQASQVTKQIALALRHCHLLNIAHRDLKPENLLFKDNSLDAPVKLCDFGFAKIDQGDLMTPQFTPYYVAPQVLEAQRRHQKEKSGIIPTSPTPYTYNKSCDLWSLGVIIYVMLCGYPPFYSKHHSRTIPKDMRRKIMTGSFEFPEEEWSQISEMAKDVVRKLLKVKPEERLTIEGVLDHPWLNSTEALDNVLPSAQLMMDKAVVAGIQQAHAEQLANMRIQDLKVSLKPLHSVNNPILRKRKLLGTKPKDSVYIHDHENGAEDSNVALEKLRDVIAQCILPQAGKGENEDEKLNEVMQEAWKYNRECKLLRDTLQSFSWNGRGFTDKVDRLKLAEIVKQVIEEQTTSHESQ

MARK1 (human) = MARK1 (human) (UniProt Q9P0L2)
MELK (human) = MELK (human) (UniProt Q14680)
MINK1 (human) = MINK1 (human) (UniProt Q8N4C8)
NTRK1 (human) = NTRK1 (human) (UniProt P04629)
PRKCZ (human) = PRKCZ (human) (UniProt Q05513)
RIPK2 (human) = RIPK2 (human) (UniProt O43353)
ROCK2 (rat) = details: accession and sequence are those of the human protein
RPS6KA3 KD1 KD2 (human) = RPS6KA3 KD1 KD2 (human) (UniProt P51812)
SRC (human) = SRC (human) (UniProt P12931)
Chain of SRC (human) (P12931 whole entry, looked up): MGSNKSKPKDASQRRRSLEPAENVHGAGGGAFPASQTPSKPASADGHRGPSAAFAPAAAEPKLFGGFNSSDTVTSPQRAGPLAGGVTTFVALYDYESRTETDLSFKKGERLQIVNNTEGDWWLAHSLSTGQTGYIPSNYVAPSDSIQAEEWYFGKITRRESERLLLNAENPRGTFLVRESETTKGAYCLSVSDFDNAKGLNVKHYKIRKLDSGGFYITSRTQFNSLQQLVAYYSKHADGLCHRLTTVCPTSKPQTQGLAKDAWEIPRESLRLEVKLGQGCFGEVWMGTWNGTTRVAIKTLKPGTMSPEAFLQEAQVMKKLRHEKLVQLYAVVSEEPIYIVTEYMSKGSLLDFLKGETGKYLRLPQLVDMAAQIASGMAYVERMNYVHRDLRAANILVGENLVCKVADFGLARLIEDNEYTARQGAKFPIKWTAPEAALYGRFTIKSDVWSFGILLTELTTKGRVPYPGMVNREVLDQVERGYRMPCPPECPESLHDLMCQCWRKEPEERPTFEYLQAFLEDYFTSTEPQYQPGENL

[2] = biological target: STK11 CAB39 STRADA (human) (UniProt Q9Y376+Q7RTN6+Q15831)
TAOK1 (human) = TAOK1 (human) (UniProt Q7L7X3)

Chain of DYRK3 (human) (O43781 whole entry, looked up): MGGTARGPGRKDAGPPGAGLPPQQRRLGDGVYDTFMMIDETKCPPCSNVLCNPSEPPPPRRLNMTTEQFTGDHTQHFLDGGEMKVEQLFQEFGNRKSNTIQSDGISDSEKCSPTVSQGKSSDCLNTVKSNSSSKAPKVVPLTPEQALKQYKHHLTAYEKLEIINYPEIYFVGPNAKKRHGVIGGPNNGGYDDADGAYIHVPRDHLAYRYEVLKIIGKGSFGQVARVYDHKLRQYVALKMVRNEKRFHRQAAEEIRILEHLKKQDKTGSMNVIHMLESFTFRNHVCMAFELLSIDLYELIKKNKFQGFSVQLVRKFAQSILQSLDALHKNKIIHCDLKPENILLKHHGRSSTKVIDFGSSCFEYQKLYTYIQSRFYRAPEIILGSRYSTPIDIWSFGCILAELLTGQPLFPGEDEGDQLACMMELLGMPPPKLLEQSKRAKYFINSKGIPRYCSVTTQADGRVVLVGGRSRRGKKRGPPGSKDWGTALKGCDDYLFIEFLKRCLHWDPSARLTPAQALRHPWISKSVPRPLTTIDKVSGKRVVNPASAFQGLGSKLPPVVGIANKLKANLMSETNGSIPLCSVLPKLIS

Q: How did the residual activity ([1]; compound 0.1 µM) turn out when `NC(=O)c1cc(-c2ccnc(NC3CCCCC3)c2)nc(N2CCNCC2)c1` was run?
A: 97%

Q: What about the residual activity ([1]; compound 1.0 µM) of the same compound?
A: 57%

Q: What about the residual activity ([1]; compound 10.0 µM) of the same compound?
A: 3%

Q: And the residual activity (BRSK1 (human); compound 0.1 µM)?
A: 96%

Q: What about the residual activity (BRSK1 (human); compound 1.0 µM) of the same compound?
A: 73%

Q: What about the residual activity (BRSK1 (human); compound 10.0 µM) of the same compound?
A: 26%

Q: And the residual activity (CAMKK2 (human); compound 0.1 µM)?
A: 85%

Q: And the residual activity (CAMKK2 (human); compound 1.0 µM)?
A: 99%

Q: What about the residual activity (CAMKK2 (human); compound 10.0 µM) of the same compound?
A: 62%

Q: What about the residual activity (CLK2 (human); compound 0.1 µM) of the same compound?
A: 78%

Q: What about the residual activity (CLK2 (human); compound 10.0 µM) of the same compound?
A: 51%

Q: And the residual activity (CSK (human); compound 0.1 µM)?
A: 113%

Q: And the residual activity (CSK (human); compound 1.0 µM)?
A: 116%

Q: What about the residual activity (CSK (human); compound 10.0 µM) of the same compound?
A: 90%

Q: And the residual activity (CSNK1D (human); compound 0.1 µM)?
A: 75%

Q: And the residual activity (CSNK1D (human); compound 1.0 µM)?
A: 42%

Q: What about the residual activity (CSNK1D (human); compound 10.0 µM) of the same compound?
A: 18%

Q: What about the residual activity (DYRK3 (human); compound 0.1 µM) of the same compound?
A: 39%

Q: What about the residual activity (DYRK3 (human); compound 1.0 µM) of the same compound?
A: 14%

Q: What about the residual activity (DYRK3 (human); compound 10.0 µM) of the same compound?
A: 7%

Q: And the residual activity (EPHA2 (human); compound 0.1 µM)?
A: 78%

Q: And the residual activity (EPHA2 (human); compound 1.0 µM)?
A: 99%

Q: What about the residual activity (EPHA2 (human); compound 10.0 µM) of the same compound?
A: 82%

Q: What about the residual activity (FGFR1 (human); compound 0.1 µM) of the same compound?
A: 110%

Q: And the residual activity (FGFR1 (human); compound 1.0 µM)?
A: 85%

Q: And the residual activity (FGFR1 (human); compound 10.0 µM)?
A: 82%

Q: And the residual activity (FLT1 (human); compound 0.1 µM)?
A: 95%

Q: And the residual activity (FLT1 (human); compound 1.0 µM)?
A: 88%

Q: What about the residual activity (FLT1 (human); compound 10.0 µM) of the same compound?
A: 68%

Q: And the residual activity (GSK3B (human); compound 0.1 µM)?
A: 86%

Q: What about the residual activity (GSK3B (human); compound 1.0 µM) of the same compound?
A: 82%

Q: What about the residual activity (GSK3B (human); compound 10.0 µM) of the same compound?
A: 51%

Q: What about the residual activity (HIPK1 (human); compound 0.1 µM) of the same compound?
A: 99%

Q: And the residual activity (HIPK1 (human); compound 1.0 µM)?
A: 99%

Q: And the residual activity (HIPK1 (human); compound 10.0 µM)?
A: 106%

Q: And the residual activity (HIPK3 (human); compound 0.1 µM)?
A: 95%

Q: What about the residual activity (HIPK3 (human); compound 1.0 µM) of the same compound?
A: 92%

Q: What about the residual activity (HIPK3 (human); compound 10.0 µM) of the same compound?
A: 101%

Q: What about the residual activity (IGF1R (human); compound 0.1 µM) of the same compound?
A: 97%

Q: What about the residual activity (IGF1R (human); compound 1.0 µM) of the same compound?
A: 102%

Q: What about the residual activity (IGF1R (human); compound 10.0 µM) of the same compound?
A: 99%

Q: And the residual activity (INSR (human); compound 0.1 µM)?
A: 89%

Q: What about the residual activity (INSR (human); compound 1.0 µM) of the same compound?
A: 86%

Q: And the residual activity (INSR (human); compound 10.0 µM)?
A: 93%

Q: And the residual activity (IRAK4 (human); compound 0.1 µM)?
A: 96%

Q: And the residual activity (IRAK4 (human); compound 1.0 µM)?
A: 127%

Q: What about the residual activity (IRAK4 (human); compound 10.0 µM) of the same compound?
A: 92%

Q: And the residual activity (JAK2 JH1 JH2 (human); compound 0.1 µM)?
A: 82%

Q: What about the residual activity (JAK2 JH1 JH2 (human); compound 1.0 µM) of the same compound?
A: 87%

Q: What about the residual activity (JAK2 JH1 JH2 (human); compound 10.0 µM) of the same compound?
A: 89%

Q: And the residual activity (LCK (mouse); compound 0.1 µM)?
A: 84%

Q: And the residual activity (LCK (mouse); compound 1.0 µM)?
A: 30%

Q: What about the residual activity (LCK (mouse); compound 10.0 µM) of the same compound?
A: 9%

Q: And the residual activity (MAP3K1 (human); compound 0.1 µM)?
A: 115%

Q: And the residual activity (MAP3K1 (human); compound 10.0 µM)?
A: 102%

Q: What about the residual activity (MAP3K7 TAB1 (human); compound 0.1 µM) of the same compound?
A: 94%

Q: What about the residual activity (MAP3K7 TAB1 (human); compound 1.0 µM) of the same compound?
A: 100%

Q: What about the residual activity (MAP3K7 TAB1 (human); compound 10.0 µM) of the same compound?
A: 55%

Q: What about the residual activity (MAPK11 (human); compound 0.1 µM) of the same compound?
A: 99%

Q: And the residual activity (MAPK11 (human); compound 1.0 µM)?
A: 96%

Q: And the residual activity (MAPK11 (human); compound 10.0 µM)?
A: 62%

Q: And the residual activity (MAPK14 (human); compound 0.1 µM)?
A: 104%

Q: What about the residual activity (MAPK14 (human); compound 1.0 µM) of the same compound?
A: 116%

Q: And the residual activity (MAPK14 (human); compound 10.0 µM)?
A: 103%

Q: What about the residual activity (MAPK15 (human); compound 0.1 µM) of the same compound?
A: 63%

Q: What about the residual activity (MAPK15 (human); compound 1.0 µM) of the same compound?
A: 26%

Q: And the residual activity (MAPK15 (human); compound 10.0 µM)?
A: 4%

Q: What about the residual activity (MAPKAPK5 (human); compound 0.1 µM) of the same compound?
A: 109%

Q: And the residual activity (MAPKAPK5 (human); compound 1.0 µM)?
A: 97%

Q: What about the residual activity (MAPKAPK5 (human); compound 10.0 µM) of the same compound?
A: 65%

Q: And the residual activity (MARK1 (human); compound 0.1 µM)?
A: 51%

Q: And the residual activity (MARK1 (human); compound 1.0 µM)?
A: 94%

Q: What about the residual activity (MARK1 (human); compound 10.0 µM) of the same compound?
A: 76%

Q: What about the residual activity (MELK (human); compound 0.1 µM) of the same compound?
A: 108%

Q: And the residual activity (MELK (human); compound 1.0 µM)?
A: 78%

Q: What about the residual activity (MELK (human); compound 10.0 µM) of the same compound?
A: 40%

Q: What about the residual activity (MINK1 (human); compound 0.1 µM) of the same compound?
A: 65%

Q: And the residual activity (MINK1 (human); compound 1.0 µM)?
A: 13%

Q: What about the residual activity (MINK1 (human); compound 10.0 µM) of the same compound?
A: 2%

Q: And the residual activity (NTRK1 (human); compound 0.1 µM)?
A: 72%

Q: And the residual activity (NTRK1 (human); compound 10.0 µM)?
A: 71%

Q: What about the residual activity (PRKCZ (human); compound 0.1 µM) of the same compound?
A: 88%

Q: And the residual activity (PRKCZ (human); compound 1.0 µM)?
A: 109%

Q: And the residual activity (PRKCZ (human); compound 10.0 µM)?
A: 84%

Q: And the residual activity (RIPK2 (human); compound 0.1 µM)?
A: 96%

Q: What about the residual activity (RIPK2 (human); compound 1.0 µM) of the same compound?
A: 96%

Q: What about the residual activity (RIPK2 (human); compound 10.0 µM) of the same compound?
A: 79%

Q: What about the residual activity (ROCK2 (rat); compound 0.1 µM) of the same compound?
A: 99%

Q: What about the residual activity (ROCK2 (rat); compound 10.0 µM) of the same compound?
A: 51%

Q: What about the residual activity (RPS6KA3 KD1 KD2 (human); compound 0.1 µM) of the same compound?
A: 98%

Q: What about the residual activity (RPS6KA3 KD1 KD2 (human); compound 10.0 µM) of the same compound?
A: 81%

Q: What about the residual activity (SRC (human); compound 0.1 µM) of the same compound?
A: 106%

Q: And the residual activity (SRC (human); compound 1.0 µM)?
A: 90%

Q: And the residual activity (SRC (human); compound 10.0 µM)?
A: 66%

Q: And the residual activity ([2]; compound 0.1 µM)?
A: 77%

Q: And the residual activity ([2]; compound 10.0 µM)?
A: 71%

Q: And the residual activity (TAOK1 (human); compound 0.1 µM)?
A: 103%

Q: What about the residual activity (TAOK1 (human); compound 10.0 µM) of the same compound?
A: 53%
